# Measured values as given in patent US20110207759A1, “METHOD FOR TREATMENT OF ATHEROSCLEROTIC DISEASE” (priority 2010, published 2011).
# Legend:
# [1] = test system: statin-treated patients with atherosclerotic coronary or vascular disease or coronary risk equivalent; assay: Carotid B-mode ultrasound: change in carotid intima-media thickness (CIMT), ARBITER 6-HALTS trial; type: in vivo, human; details: for Change in CIMT - Mean CIMT / Change in CIMT - Max CIMT / Change in mean CIMT / Change from baseline CIMT, maximal thickness / Change from baseline CIMT, mean thickness: mean ± SE; for Change in mean CIMT: LOCF; for Change from baseline CIMT, maximal thickness / Change from baseline CIMT, mean thickness: last observation carried forward, all subjects (ezetimibe n=161, niacin n=154)
# Source text: (§1) Endpoints: The predefined primary endpoint was the between-group difference in the change in mean CIMT after 14 months. Secondary endpoints included the change in lipid values, a composite endpoint consisting of major adverse cardiovascular events (coronary heart disease death, myocardial infarction, myocardial revascularization, admission to the hospital for an acute coronary syndrome), drug discontinuation due to adverse effects, and health-related quality of life (Schweikert et al., 2008). Clinical cardiovascular endpoints were adjudicated by consensus of two members of the data advisory committee blinded to treatment assignment.
# Carotid B-mode Ultrasound: Carotid ultrasonography was performed using a Sonosite Micromax ultrasound system (Bothell, Wash.) equipped with a broadband linear array probe (13 MHz). Participants underwent 3 ultrasound examinations during the study at baseline, 8 and 14 months. Except for the initial 20 baseline examinations performed at the Washington Adventist site, a single sonographer performed all ultrasound examinations. Images were obtained of the far wall of the distal 1 centimeter of the right and left common carotid arteries in the anterior and lateral views. A total of eight images (2 complete sets of 4 separate images) were obtained with standardized ultrasound settings. Baseline CIMT images were used to localize the site of imaging in serial images. Digitized still images from an electrocardiographically-defined diastolic frame were quantitated off-line. A single observer unaware of treatment assignment and patient identification performed measurements of mean and maximal CIMT. Focal atherosclerotic plaque was excluded from the site of CIMT measurement. All measurements were performed in duplicate using an automated border detection algorithm. […] Reader drift was evaluated using a standard image set (10 CIMT images from different patients) which the sonographer serially quantified every 6 months.
# Statistical analysis: The primary endpoint was the change in mean CIMT from baseline to 14 months between the niacin and ezetimibe treatment groups. […] Clinical and carotid imaging data were held in separate databases for the duration of the trial. Between-group data for continuous variables were assessed with a t-test for independent variables or a Mann-Whitney U test as appropriate. A chi-square test was used for categorical variables. Kaplan-Meier survival analysis was performed using the log rank test. All statistical analyses were performed using SPSS software (version 16, SPSS Inc., Chicago, Ill.). Values are reported as mean±standard deviation or standard error, and median (inter-quartile range) for non-normal distributions. A 2-sided P value of 0.05 was considered statistically significant.
# Study design: The study design prespecified the performance of a blinded, interim analysis according to the conservative method of O'Brien and Fleming with an alpha spending function (O'Brien et al. 1979). This was conducted after 180 subjects (60% of the planned sample size) completed the study. An independent data advisory committee evaluated the endpoint data without knowledge of treatment assignment. No formal, a priori stopping boundaries were set for the trial.
# [2] = test system: statin-treated patients with atherosclerotic coronary or vascular disease or coronary risk equivalent; assay: Major adverse cardiovascular events (composite clinical endpoint); type: in vivo, human; details: 14-month study
# Source text: as §1
# [3] = test system: statin-treated patients with atherosclerotic coronary or vascular disease or coronary risk equivalent
# Source text: as §1
# [4] = test system: statin-treated patients with atherosclerotic coronary or vascular disease or coronary risk equivalent; assay: Fasting plasma lipids, glucose and C-reactive protein during treatment; details: for C-reactive protein / Triglycerides: median (inter-quartile range);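 as to all read-outs here: plasma drawn after an overnight fast, LDL-C determined by direct assay and C-reactive protein by high-sensitivity immunoturbidimetry with monoclonal anti-CRP antibodies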
# Procedure: Study population: This prospective, randomized, parallel group, open-label, blinded endpoint study was conducted at two centers, Walter Reed Army Medical Center, a university-affiliated, suburban, tertiary care military medical center, and the Washington Adventist Hospital, a private tertiary care hospital located in Takoma Park, Md. The institutional review boards of each facility approved the study, and all volunteers provided written, informed consent. Included subjects were men and women ≧30 years old with either known atherosclerotic coronary or vascular disease (N=279) or a coronary risk equivalent diagnosis including diabetes mellitus (N=38), a 10-year coronary heart disease Framingham risk score ≧20% (N=26), or a coronary calcium score above 200 or 400 (N=20) for women and men respectively.
# Randomization: Three hundred sixty-three patients were enrolled in the trial. […] Randomization was performed using a computer-generated sequence of random numbers. There were no protocol-directed changes in statin medications during the study.
# Cardiovascular risk variables: Following an overnight fast, laboratory measurements included plasma total cholesterol, LDL-C, HDL-C, triglycerides, C-reactive protein, liver-associated enzymes and glucose at baseline, 2, 8 and 14 months. LDL-C was measured using a direct assay. C-reactive protein was measured with a high-sensitivity, commercially available immunoturbidimetric assay, which uses monoclonal antibodies to CRP (Roche Cobas® Integra, Switzerland).
# [5] = 14 months from baseline, completing subjects (ezetimibe n=111, niacin n=97), added to statin
# [6] = 2 Months, 208 completers, added to statin, mean ± SD
# [7] = 8 Months, 208 completers, added to statin, mean ± SD
# [8] = 14 Months, 208 completers, added to statin, mean ± SD
# [9] = baseline to 14 months, 208 completers, added to statin
# [10] = study completion, n=315, mean ± SD
# [11] = study completion, n=315, median (interquartile range)
structure (smiles),measurement,setting,value
"O=C1[C@H](CC[C@H](O)c2ccc(F)cc2)[C@@H](c2ccc(O)cc2)N1c1ccc(F)cc1 [Ezetimibe, ezetimibe]",Change in CIMT,"[1]; 8 and 14 months, 208 completers, added to statin",No net change
same,Change in CIMT - Mean CIMT,"[1]; 8 months from baseline, 208 completers (ezetimibe N=111, niacin N=97), added to statin",0.0014 ± 0.0020 mm
same,Change in CIMT - Max CIMT,"[1]; 8 months from baseline, 208 completers, added to statin",−0.0028 ± 0.0031 mm
same,Change in CIMT - Max CIMT,[1]; [5],−0.0009 ± 0.0039 mm
same,Change in CIMT - Mean CIMT,[1]; [5],−0.0007 ± 0.0035 mm
same,Change in mean CIMT,[1]; Quartile 1 (lowest) of cumulative drug exposure (adherence × dose × treatment duration),−0.0071 ± 0.0031 mm
same,Change in mean CIMT,[1]; Quartile 2 of cumulative drug exposure,−0.0051 ± 0.0036 mm
same,Change in mean CIMT,[1]; Quartile 3 of cumulative drug exposure,−0.0009 ± 0.0067 mm
same,Change in mean CIMT,"[1]; Quartile 4 (highest) of cumulative drug exposure, 14 months",0.0067 ± 0.0059 mm
same,Change in mean CIMT,"[1]; Quartile 4 (highest) of cumulative drug exposure, 14 months, listed as ezetimibe",0.0067±0.0059 mm
same,Effect of increased cumulative drug exposure on CIMT,"[1]; exploratory analysis, quartiles of adherence × dose × duration",progression of CIMT
same,"Change from baseline CIMT, maximal thickness",[1],−0.0005 ± 0.0029 mm
same,"Change from baseline CIMT, mean thickness",[1],−0.0016 ± 0.0024 mm
same,"Change from baseline CIMT, maximal thickness",[1]; listed as ezetimibe,−0.0005±0.0029 mm
same,"Change from baseline CIMT, mean thickness",[1]; listed as ezetimibe,−0.0016±0.0024 mm
same,Incidence of major adverse cardiovascular events,[2],5.8%
same,Cardiovascular death (number of events),"[2]; ezetimibe N=165, niacin N=160",5
same,Coronary revascularization procedure (number of events),"[2]; ezetimibe N=165, niacin N=160",3
same,Myocardial infarction (number of events),"[2]; ezetimibe N=165, niacin N=160",3
same,Subjects experiencing a composite clinical cardiovascular endpoint (major adverse cardiovascular events),"[2]; ezetimibe N=165, niacin N=160",9 subjects
same,Withdrawals with adverse drug effects cited as the reason,"[3]; both, human, in vivo, 14 months",3
same,Subjects who did not complete the study,[3]; in vivo,16
same,Subjects who did not complete the study (percent),[3]; in vivo,9.1%
same,Withdrawals,[3]; in vivo,9
same,Deaths,[3]; of 176 ezetimibe / of 187 niacin enrolled,7
same,HDL-C,[4]; [6],42.2 ± 8.5 mg/dL
same,LDL-C,[4]; [6],60.1 ± 16.1 mg/dL
same,C-reactive protein,"[4]; 2 Months, 208 completers",1.2 (0.6-3.0) mg/L
same,Triglycerides,"[4]; 2 Months, 208 completers",100 (78-140) mg/dL
same,Total Cholesterol,"[4]; 2 Months, 208 subjects who completed 14 month study, added to statin, mean ± SD",120.2 ± 20.6 mg/dL
same,HDL-C,[4]; [7],41.1 ± 9.0 mg/dL
same,LDL-C,[4]; [7],61.6 ± 17.2 mg/dL
same,Total Cholesterol,[4]; [7],122.4 ± 21.5 mg/dL
same,C-reactive protein,"[4]; 8 Months, 208 completers",1.3 (0.6-2.9) mg/L
same,Triglycerides,"[4]; 8 Months, 208 completers",107 (78-153) mg/dL
same,HDL-C,[4]; [8],40.5 ± 7.9 mg/dL
same,LDL-C,[4]; [8],66.1 ± 18.8 mg/dL
same,Total Cholesterol,[4]; [8],127.8 ± 22.8 mg/dL
same,C-reactive protein,"[4]; 14 Months, 208 completers",0.6 (0.6-3.1) mg/L
same,Triglycerides,"[4]; 14 Months, 208 completers",113 (84-150) mg/dL
same,Change from baseline in LDL-C and triglycerides,"[4]; 315 patients, baseline to final",Significant reductions
same,Final change in HDL-C,[4]; [9],-2.8 ± 5.7 mg/dL
same,Final change in LDL-C,[4]; [9],-17.6 ± 20.1 mg/dL
same,"Total cholesterol, final values","[4]; study completion, n=315 (ezetimibe 161, niacin 154), last observation carried forward, mean ± SD",127.5 ± 24.8 mg/dL
same,"HDL-C, final values",[4]; [10],41.1 ± 8.5 mg/dL
same,"LDL-C, final values",[4]; [10],65.5 ± 20.0 mg/dL
same,"Triglycerides, final values",[4]; [11],111 (82-144) mg/dl
same,"hsCRP, final values",[4]; [11],1.0 (0.5-2.9) mg/l
